Read-outs that look alike come from different tables or passages of the source.
How the values were obtained:
[1] = Qualitative solubility of the product of Example 3 in organic solvents; type: physicochemical; conditions: in propylene carbonate, γ-butyrolactone, 1,2-dimethyoxyethane, acetone and dimethylformamide
[2] = room temperature
[3] = room temperature; for Cond. (conductivity): at the concentration (mmole/g) printed in the cell to the left
[4] = 0.5 molar solution in γ-butyrolactone, nickel electrodes, FIG. 1
[5] = thermogravimetry
[6] = prior art statement; cited from earlier work
[7] = 5% solution in water, stirring for 2 hours, room temperature
[8] = in propylene carbonate; Xu and Angell 2001; cited from earlier work
[9] = in 1,2-DME (1,2-dimethoxyethane)

| Compound | Solubility in words [1] | Solubility [2, 9] [mol/kg] | Solubility ([2]; in PC (propylene carbonate)) [mol/kg] | Solubility ([2]; in THF (tetrahydrofuran)) [mol/kg] | Solubility ([2]; in acetone) [mol/kg] | Solubility ([2]; in γ-BL (γ-butyrolactone)) [mol/kg] | Concn. column: solubility in words ([3]; in 1,2-DME) | Cond. (conductivity) ([3]; in 1,2-DME) [mS/cm] | Concn. column: solubility in words ([3]; in THF) | Cond. (conductivity) ([3]; in THF) [mS/cm] | Cond. (conductivity) ([3]; in γ-BL) [mS/cm] | Electrochemical window (upper limit of stability, Li/Li+=0) [4] | TGA: decomposition starts at [5] | Electrochemical stability / electrochemical window up to [6] | Degree of hydrolysis [7] [%] | Solubility [8] [mM] |
| --- | --- | --- | --- | --- | --- | --- | --- | --- | --- | --- | --- | --- | --- | --- | --- | --- |
| O=C1O[B-]2(OC1=O)OC(=O)c1ccccc1O2.[H+] [HSOB, hydrogen-(salicylato, oxalato)borate] | extremely soluble |  |  |  |  |  |  |  |  |  |  |  |  |  |  |  |
| CC1O[B-]2(OC1=O)OC(=O)C(C)O2.[Li+] (stereo not shown) [LLB, Lithium-bis(lactato)borate] |  | <0.01 | <0.01 | <0.01 | <0.01 | 0.02 | insoluble | 0 | insoluble | 0 | 0.01 |  |  |  |  |  |
| CC1O[B-]2(OC(=O)C(=O)O2)OC1=O.[Li+] (stereo not shown) [LLOB, Lithium-(lactato,oxalato)borate] |  | 0.93 | 0.17 | 1.59 | 1.38 | 0.96 |  | 6.52 |  | 2.91 | 2.61 | ca. 5 V | ca. 270 °C |  |  |  |
| O=C1CC(=O)O[B-]2(O1)OC(=O)CC(=O)O2.[Li+] [LMB, Lithium-bis(malonato)borate] |  | 0.003 | 0.02 | 0.09 | 0.03 | 0.13 |  |  |  | 0.01 | 1.65 |  |  | up to 5 V | 5 | 80 |
| O=C1O[B-]2(OC1=O)OC(=O)C(=O)O2.[Li+] [LOB, Lithium-bis(oxalato)borate] |  | 1.30 | 0.88 | 1.90 | 1.82 | 1.55 |  |  |  |  | 6.96 |  |  | about 4.5 V | >50 |  |
| O=C1CC(=O)O[B-]2(O1)OC(=O)C(=O)O2.[Li+] [LOMB, Lithium-(malonato,oxalato)borate] |  | 0.20 | 0.17 | 0.17 | 0.43 | 0.62 |  |  |  | 0.41 | 3.59 |  |  |  | 15 |  |
| O=C1O[B-]2(OC1=O)OC(=O)c1ccccc1O2.[Li+] [LOSB, Lithium-(oxalato,salicylato)borate] |  | 0.43 | 1.50 | 1.21 | 0.51 | 0.98 |  | 4.17 |  | 3.17 |  |  | ca. 210 °C |  |  |  |

From patent US8168806B2, “Boron chelate complexes” (Chemetall GmbH, priority 2001, dated 2012)
